Data reported in ChEMBL document CHEMBL3045169, “In vitro evaluation of the antibacterial and antifungal activity of some new pyrazolyl-quinazolin-4(3H)-one derivatives” (2012).

Columns and labels:
Assay type in all cases: functional
[1] = system: Aspergillus niger; assay: Antifungal activity against Aspergillus niger ATCC 6275 at 20 ug/ml by agar cup-plate method; conditions: read-out: IZ
[2] = system: Candida albicans; assay: Antifungal activity against Candida albicans ATCC 10231 at 10 ug/ml by agar cup-plate method; conditions: read-out: IZ
[3] = system: Escherichia coli; assay: Antibacterial activity against Escherichia coli ATCC 25922 at 50 ug/ml by agar cup-plate method; conditions: read-out: IZ
[4] = system: Candida albicans; assay: Antifungal activity against Candida albicans ATCC 10231 at 20 ug/ml by agar cup-plate method; conditions: read-out: IZ
[5] = system: Staphylococcus aureus; assay: Antibacterial activity against Staphylococcus aureus ATCC 9144 at 50 ug/ml by agar cup-plate method; conditions: read-out: IZ
[6] = system: Aspergillus niger; assay: Antifungal activity against Aspergillus niger ATCC 6275 by agar cup-plate method relative to fluconazole; parameters: concentration or dose not given beside the values
[7] = system: Aspergillus niger; assay: Antifungal activity against Aspergillus niger ATCC 6275 at 10 ug/ml by agar cup-plate method; conditions: read-out: IZ
[8] = system: Bacillus subtilis; assay: Antibacterial activity against Bacillus subtilis ATCC 6633 at 50 ug/ml by agar cup plate method; conditions: read-out: IZ
[9] = system: Escherichia coli; assay: Antibacterial activity against Escherichia coli ATCC 25922 by agar cup-plate method relative to penicillin-G; parameters: concentration or dose not given beside the values
[10] = system: Bacillus subtilis; assay: Antibacterial activity against Bacillus subtilis ATCC 6633 at 100 ug/ml by agar cup plate method; conditions: read-out: IZ
[11] = system: Bacillus subtilis; assay: Antibacterial activity against Bacillus subtilis ATCC 6633 by agar cup plate method relative to penicillin-G; parameters: concentration or dose not given beside the values
[12] = system: Candida albicans; assay: Antifungal activity against Candida albicans ATCC 10231 by agar cup-plate method relative to fluconazole; parameters: concentration or dose not given beside the values
[13] = system: Staphylococcus aureus; assay: Antibacterial activity against Staphylococcus aureus ATCC 9144 by agar cup-plate method relative to penicillin-G; parameters: concentration or dose not given beside the values
[14] = system: Pseudomonas aeruginosa; assay: Antibacterial activity against Pseudomonas aeruginosa ATCC 9027 by agar cup-plate method relative to penicillin-G; parameters: concentration or dose not given beside the values
[15] = system: Staphylococcus aureus; assay: Antibacterial activity against Staphylococcus aureus ATCC 9144 at 100 ug/ml by agar cup-plate method; conditions: read-out: IZ
[16] = system: Pseudomonas aeruginosa; assay: Antibacterial activity against Pseudomonas aeruginosa ATCC 9027 at 100 ug/ml by agar cup-plate method; conditions: read-out: IZ
[17] = system: Escherichia coli; assay: Antibacterial activity against Escherichia coli ATCC 25922 at 100 ug/ml by agar cup-plate method; conditions: read-out: IZ
[18] = system: Pseudomonas aeruginosa; assay: Antibacterial activity against Pseudomonas aeruginosa ATCC 9027 at 50 ug/ml by agar cup-plate method; conditions: read-out: IZ

Compound O=c1c2cc(I)ccc2nc(Cc2ccccc2Nc2ccccc2)n1NC1=NNC(c2ccc([N+](=O)[O-])cc2)C1 (stereo not drawn) has a zone of inhibition at 20 µg/mL [1] of 15 mm, a zone of inhibition at 10 µg/mL [2] of 14 mm and a zone of inhibition at 50 µg/mL [3] of 12 mm. The zone of inhibition at 20 µg/mL [4] was 16 mm, the zone of inhibition at 50 µg/mL [5] was 11 mm and the Activity [6] was 51.52%. For the same compound, the zone of inhibition at 10 µg/mL [7] was 13 mm, the zone of inhibition at 50 µg/mL [8] was 13 mm and the Activity [9] was 54.75%. For the same compound, the zone of inhibition at 100 µg/mL [10] was 16 mm, the Activity [11] was 58.83% and the Activity [12] was 59.53%. For the same compound, the Activity [13] was 55.57%, the Activity [14] was 61.15% and the zone of inhibition at 100 µg/mL [15] was 15 mm. The zone of inhibition at 100 µg/mL [16] was 17 mm, the zone of inhibition at 100 µg/mL [17] was 16 mm and the zone of inhibition at 50 µg/mL [18] was 14 mm.
